Results reported in patent US7674819B2 (Warner-Lambert Company LLC, priority 2005, dated 2010).
Residue numbers refer to the chain shown, from its start. pIC50: −log10 of the molar value. Like-named read-outs stand apart in the source and are kept apart here.

How the values were obtained:
androgen receptor = molecular target: T1, androgen receptor (Homo sapiens, UniProt P10275); experiment: AR Antagonist Cell Assay (MDA-MB453-MMTV clone 54-19, luciferase reporter); format: cell-based; conditions: inhibition of induction by DHT (final concentration at 100 μM), 17 hr, compound 0.32-1000 nM, mean of multiple tests
T1 sequence (P10275 1-920 Q868H): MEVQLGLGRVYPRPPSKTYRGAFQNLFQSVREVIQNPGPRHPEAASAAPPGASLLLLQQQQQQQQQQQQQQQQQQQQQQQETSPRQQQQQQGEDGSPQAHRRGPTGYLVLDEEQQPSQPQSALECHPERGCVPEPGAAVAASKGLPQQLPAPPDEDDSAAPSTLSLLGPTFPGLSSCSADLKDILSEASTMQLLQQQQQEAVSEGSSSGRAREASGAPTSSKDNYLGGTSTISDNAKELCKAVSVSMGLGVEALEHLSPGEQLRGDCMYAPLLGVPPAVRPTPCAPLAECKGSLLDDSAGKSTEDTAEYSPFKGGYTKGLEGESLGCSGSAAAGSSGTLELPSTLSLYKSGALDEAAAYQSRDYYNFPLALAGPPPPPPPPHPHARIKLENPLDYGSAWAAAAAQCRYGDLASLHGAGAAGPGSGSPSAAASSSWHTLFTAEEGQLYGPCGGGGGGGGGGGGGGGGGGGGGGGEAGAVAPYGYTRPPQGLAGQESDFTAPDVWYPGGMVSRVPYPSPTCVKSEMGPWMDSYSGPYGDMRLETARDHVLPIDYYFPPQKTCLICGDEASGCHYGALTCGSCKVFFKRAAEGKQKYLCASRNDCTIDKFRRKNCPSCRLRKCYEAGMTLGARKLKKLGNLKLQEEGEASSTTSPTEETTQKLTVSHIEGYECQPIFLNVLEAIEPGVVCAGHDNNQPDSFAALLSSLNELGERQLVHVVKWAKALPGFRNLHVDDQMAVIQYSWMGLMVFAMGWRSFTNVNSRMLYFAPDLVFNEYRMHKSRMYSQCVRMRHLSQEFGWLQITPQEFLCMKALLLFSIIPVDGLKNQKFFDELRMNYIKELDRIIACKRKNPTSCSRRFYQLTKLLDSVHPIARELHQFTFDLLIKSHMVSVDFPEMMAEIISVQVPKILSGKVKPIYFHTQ
Experimental: The compounds ability to antagonize the effects of androgen on the androgen receptor were determined in a whole cell assay as described immediately below.
Experimental Procedure for AR Antagonist Cell Assay
This cell line is a stable transfected cell line with MDA-MB453 cell background (a human breast tumor cell line expressing androgen receptor). A MMTV minimal promoter containing ARE was first cloned in front of a firefly luciferase reporter gene. Then the cascade was cloned into transfection vector pUV120puro. […] Puromycin resistant stable cell line was selected.
Cell Culture Media and Reagents:
Plating medium: DMEM (phenol red free), 10% charcoal treated HyClone serum, 1% L-glutamine
Assay medium: DMEM (phenol red free), 1% charcoal treated HyClone serum, 1% L-glutamine, 1% penicillin/streptomycin
Cells are maintained in culture medium, splitting cells when they reach 80-90% confluence
To test compounds, 10,000 cells/well are plated to opaque 96 cell culture plate in 100 ul/well plating medium, culture for overnight at 37° C. in cell culture incubator
Add 10 ul/well freshly prepared DHT (final concentration at […]) to each well, incubate at 37° C. for 17 hr (overnight)
Add 50 ul/well 3× luciferase buffer, incubate at room temperature for 5 minutes, then count on Luminometer
The results are reported as the mean of multiple tests described below (the numbers of tests are indicated in the footnote). N.D. denotes that the compound was not tested.

hAR = molecular target: T2, hAR (Homo sapiens, UniProt P10275); experiment: Competitive binding of 3H-DHT to baculovirus/Sf9 generated hAR extracts; conditions: one hour at 4° C., mean of multiple tests
T2 sequence (P10275 1-920): T1 sequence (P10275 1-920 Q868H) with H868Q
Outline: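 Baculovirus/Sf9-expressed hAR extract incubated with test compound, hydroxylapatite and 1 nM 3H-DHT tracer for 1 h at 4° C, then washed free of unbound tracer. Affinity given as concentration inhibiting half of maximal 3H-DHT binding.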

[1] = IC50, concentration at which one half of maximum binding of 1 nM 3H-DHT to hAR is inhibited
[2] = concentration at which one half of maximum binding of 1 nM 3H-DHT to hAR is inhibited, read-out: IC50

Molecule CC1(C)CN(Cc2ccccc2O)C(=O)C1Oc1ccc(C#N)c(C(F)(F)F)c1 (stereo not shown) [Example 11, 4-[1-(2-Hydroxy-benzyl)-4,4-dimethyl-2-oxo-pyrrolidin-3-yloxy]-2-trifluoromethyl-benzonitrile] has a pIC50 (androgen receptor) of 7.85 and a pIC50 (hAR; [1]) of 7.77.
For COc1cccc(CN2CC(C)(C)C(Oc3ccc(C#N)c(C(F)(F)F)c3)C2=O)c1 (stereo not shown) [Example 12, 4-[1-(3-Methoxy-benzyl)-4,4-dimethyl-2-oxo-pyrrolidin-3-yloxy]-2-trifluoromethyl-benzonitrile], the pIC50 (androgen receptor) was 6.51 and the pIC50 (hAR; [1]) was 6.95.
CC1(C)CN(Cc2cccc(O)c2)C(=O)C1Oc1ccc(C#N)c(C(F)(F)F)c1 (stereo not shown) [Example 13, 4-[1-(3-Hydroxy-benzyl)-4,4-dimethyl-2-oxo-pyrrolidin-3-yloxy]-2-trifluoromethyl-benzonitrile] showed a pIC50 (androgen receptor) of 6.50 and a pIC50 (hAR; [1]) of 7.96.
For CC1(C)CN(Cc2ccccc2F)C(=O)C1Oc1ccc(C#N)c(C(F)(F)F)c1 (stereo not shown) [Example 15, 4-[1-(2-Fluoro-benzyl)-4,4-dimethyl-2-oxo-pyrrolidin-3-yloxy]-2-trifluoromethyl-benzonitrile], the pIC50 (androgen receptor) was 7.15 and the pIC50 (hAR; [1]) was 7.32.
CC1(C)CN(Cc2ccccc2F)C(=O)C1Oc1ccc(C#N)c(C(F)(F)F)c1 (stereo not shown) [Example 16, 4-[1-(2-Fluoro-benzyl)-4,4-dimethyl-2-oxo-pyrrolidin-3-yloxy]-2-trifluoromethyl-benzonitrile] was tested, and the pIC50 (androgen receptor) was 7.37 and the pIC50 (hAR; [1]) was 7.59.
For CC1(C)CN(Cc2ccc(F)cc2)C(=O)C1Oc1ccc(C#N)c(C(F)(F)F)c1 (stereo not shown) [Example 17, 4-[1-(4-Fluoro-benzyl)-4,4-dimethyl-2-oxo-pyrrolidin-3-yloxy]-2-trifluoromethyl-benzonitrile], the pIC50 (androgen receptor) was 6.67 and the pIC50 (hAR; [1]) was 6.84.
With CC1(C)CN(Cc2cc(O)cc(O)c2)C(=O)C1Oc1ccc(C#N)c(C(F)(F)F)c1 (stereo not shown) [Example 18, 4-[1-(3,5-Dihydroxy-benzyl)-4,4-dimethyl-2-oxo-pyrrolidin-3-yloxy]-2-trifluoromethyl-benzonitrile] the pIC50 (androgen receptor) was 8.10 and the pIC50 (hAR; [1]) was 7.35.
With CCCCN1CC(C)(C)C(Oc2ccc(C#N)c(C(F)(F)F)c2)C1=O (stereo not shown) [Example 19, 4-(1-Butyl-4,4-dimethyl-2-oxo-pyrrolidin-3-yloxy)-2-trifluoromethyl-benzonitrile] the pIC50 (androgen receptor) was 7.72 and the pIC50 (hAR; [1]) was 6.82.
CC(C)OC(=O)c1ccc(CN2CC(C)(C)C(Oc3ccc(C#N)c(C(F)(F)F)c3)C2=O)o1 (stereo not shown) [Example 27, 5-[3-(4-Cyano-3-trifluoromethyl-phenoxy)-4,4-dimethyl-2-oxo-pyrrolidin-1-ylmethyl]-furan-2-carboxylic acid isopropyl ester] showed a pIC50 (androgen receptor; read-out: IC50) of 6.43 and a pIC50 (hAR; [1]) of 7.36.
COC(=O)c1ccc(CN2CC(C)(C)C(Oc3ccc(C#N)c(C(F)(F)F)c3)C2=O)o1 (stereo not shown) [Example 28, 5-[3-(4-Cyano-3-trifluoromethyl-phenoxy)-4,4-dimethyl-2-oxo-pyrrolidin-1-ylmethyl]-furan-2-carboxylic acid methyl ester] was tested, and the pIC50 (androgen receptor; read-out: IC50) was 6.50 and the pIC50 (hAR; [2]) was 6.51.
In the case of CCOC(=O)c1ccc(CN2CC(C)(C)C(Oc3ccc(C#N)c(C(F)(F)F)c3)C2=O)o1 (stereo not shown) [Example 29, 5-[3-(4-Cyano-3-trifluoromethyl-phenoxy)-4,4-dimethyl-2-oxo-pyrrolidin-1-ylmethyl]-furan-2-carboxylic acid ethyl ester], the pIC50 (androgen receptor) was 6.91 and the pIC50 (hAR; [1]) was 6.92.
Work on COC(=O)c1csc(CN2CC(C)(C)C(Oc3ccc(C#N)c(C(F)(F)F)c3)C2=O)n1 (stereo not shown) [Example 30, 2-[3-(4-Cyano-3-trifluoromethyl-phenoxy)-4,4-dimethyl-2-oxo-pyrrolidin-1-ylmethyl]-thiazole-4-carboxylic acid methyl ester] yielded a pIC50 (androgen receptor) of 6.09 and a pIC50 (hAR; [1]) of 6.67.
CC1(C)CN(Cc2ccncc2)C(=O)C1Oc1ccc(C#N)c(C(F)(F)F)c1 (stereo not shown) [Example 35, 4-(4,4-Dimethyl-2-oxo-1-pyridin-4-ylmethyl-pyrrolidin-3-yloxy)-2-trifluoromethyl-benzonitrile] showed a pIC50 (androgen receptor) of 6.31 and a pIC50 (hAR; [1]) of 6.89.
COC(=O)c1ccc(CN2CC(C)(C)C(Oc3ccc(C#N)c(C(F)(F)F)c3)C2=O)cc1 (stereo not shown) [Example 37, 4-[3-(4-Cyano-3-trifluoromethyl-phenoxy)-4,4-dimethyl-2-oxo-pyrrolidin-1-ylmethyl]-benzoic acid methyl ester] showed a pIC50 (androgen receptor) of 7.08 and a pIC50 (hAR; [1]) of 7.33.
Work on CC1(C)CN(Cc2ccc3nsnc3c2)C(=O)C1Oc1ccc(C#N)c(C(F)(F)F)c1 (stereo not shown) [Example 39, 4-(1-Benzo[1,2,5]thiadiazol-5-ylmethyl-4,4-dimethyl-2-oxo-pyrrolidin-3-yloxy)-2-trifluoromethyl-benzonitrile] yielded a pIC50 (androgen receptor) of 7.13 and a pIC50 (hAR; [1]) of 7.19.
CC1(C)CN(Cc2nc3ccccc3s2)C(=O)C1Oc1ccc(C#N)c(C(F)(F)F)c1 (stereo not shown) [Example 40, 4-(1-Benzothiazol-2-ylmethyl-4,4-dimethyl-2-oxo-pyrrolidin-3-yloxy)-2-trifluoromethyl-benzonitrile] was tested, and the pIC50 (androgen receptor) was 7.30 and the pIC50 (hAR; [1]) was 7.37.
Molecule CC1(C)CN(Cc2cccc3nsnc23)C(=O)C1Oc1ccc(C#N)c(C(F)(F)F)c1 (stereo not shown) [Example 41, 4-(1-Benzo[1,2,5]thiadiazol-4-ylmethyl-4,4-dimethyl-2-oxo-pyrrolidin-3-yloxy)-2-trifluoromethyl-benzonitrile] has a pIC50 (androgen receptor; read-out: IC50) of 7.14 and a pIC50 (hAR; [2]) of 6.97.
CC1(C)CN(Cc2cccc(OC(F)F)c2)C(=O)C1Oc1ccc(C#N)c(C(F)(F)F)c1 (stereo not shown) [Example 42, 4-[1-(3-Difluoromethoxy-benzyl)-4,4-dimethyl-2-oxo-pyrrolidin-3-yloxy]-2-trifluoromethyl-benzonitrile] was tested, and the pIC50 (androgen receptor; read-out: IC50) was 6.66 and the pIC50 (hAR; [2]) was 6.92.
CC1(C)CN(Cc2cccc(C#N)c2)C(=O)C1Oc1ccc(C#N)c(C(F)(F)F)c1 (stereo not shown) [Example 45] showed a pIC50 (androgen receptor) of 7.30 and a pIC50 (hAR; [1]) of 7.30.
Molecule CC1(C)CN(Cc2noc(-c3ccccc3)n2)C(=O)C1Oc1ccc(C#N)c(C(F)(F)F)c1 (stereo not shown) [Example 46, 4-[4,4-Dimethyl-2-oxo-1-(5-phenyl-[1,2,4]oxadiazol-3-ylmethyl)-pyrrolidin-3-yloxy]-2-trifluoromethyl-benzonitrile] has a pIC50 (androgen receptor) of 7.37 and a pIC50 (hAR; [1]) of 7.05.
